Experimental data from patent US20100298141A1, “SUBSTITUTED PYRIDINE N-OXIDE HERBICIDES” (E. I. DU PONT DE NEMOURS AND COMPANY, priority 2007, published 2010).

How the values were obtained:
[1] = system: green foxtail; test: Test F preemergence test; assay type: in vivo, Setaria viridis; settings: scale 0 to 100
From the text: (§1) Seeds of plant species selected from bermudagrass (Cynodon dactylon), Surinam grass (Brachiaria decumbens), large crabgrass (Digitaria sanguinalis), green foxtail (Setaria viridis), goosegrass (Eleusine indica), johnsongrass (Sorghum halepense), kochia (Kochia scoparia), pitted morningglory (Ipomoea lacunosa), purple nutsedge (Cyperus rotundus), common ragweed (Ambrosia elation), mustard (Brassica nigra), guineagrass (Panicum maximum), […] (Paspalum dilatatum), barnyardgrass (Echinochloa crus-galli), southern sandbur (Cenchrus echinatus), common sowthistle (Sonchus oleraceous), prickly […] spinosa), Italian ryegrass (Lolium multiflorum), common purslane (Portulaca oleracea), broadleaf signalgrass (Brachiaria platyphylla), common groundsel (Senecio vulgaris), common chickweed (Stellaria media), Virginia dayflower (Commelina virginica), annual bluegrass (Poa annua), naked crabgrass (Digitaria nuda), […] cochinchinensis), quackgrass (Elytrigia repens), Canada horseweed (Conyza canadensis), field bindweed (Convolvulus arvensis), […] (Bidens bipinnata), common mallow (Malva sylvestris), Russian thistle (Salsola kali), and sugarcane (Saccharum officinarum) were planted and treated preemergence with test chemicals formulated in a non-phytotoxic solvent mixture which included a surfactant. At a different time, sugarcane was treated with postemergence applications of some of the test chemicals formulated in the same manner. Plants were approximately 3- to 4-leaf stage for the postemergence treatments. Treated plants and controls were maintained in a greenhouse for 14 to 21 days, after which time all species were compared to controls and visually evaluated. […] A dash (-) response means no test result.

[2] = system: broadleaf signalgrass; test: Test F preemergence test; assay type: in vivo, Brachiaria platyphylla; settings: scale 0 to 100; for Signalgrass plant response rating: preemergence; for Plant response rating, Signalgrass: Preemergence
From the text: as §1

[3] = system: barnyardgrass; test: Test F preemergence test; assay type: in vivo, Echinochloa crus-galli; settings: scale 0 to 100
From the text: as §1

[4] = system: velvetleaf; test: Test C pre-/postemergence test; assay type: in vivo, Abutilon theophrasti
Method in brief: (§2)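 Test chemicals were formulated with surfactant in a non-phytotoxic solvent and sprayed both on freshly planted seeds (preemergence) and on 1- to 4-leaf plants of 2–18 cm (postemergence). Flooded-paddy pots received compound directly into 3 cm of standing water, maintained for the test.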

[5] = system: kochia; test: Test C pre-/postemergence test; assay type: in vivo, Kochia scoparia
Method in brief: as §2

[6] = system: mustard; test: Test F preemergence test; assay type: in vivo, Brassica nigra; settings: scale 0 to 100
From the text: as §1

[7] = system: field bindweed; test: Test F preemergence test; assay type: in vivo, Convolvulus arvensis; settings: scale 0 to 100
From the text: as §1

[8] = system: common mallow; test: Test F preemergence test; assay type: in vivo, Malva sylvestris; settings: scale 0 to 100
From the text: as §1

[9] = system: cocklebur; test: Test C pre-/postemergence test; assay type: in vivo, Xanthium strumarium
Method in brief: as §2

[10] = system: dallisgrass; test: Test F preemergence test; assay type: in vivo, Paspalum dilatatum; settings: scale 0 to 100
From the text: as §1

[11] = system: itchgrass; test: Test F preemergence test; assay type: in vivo, Rottboellia cochinchinensis; settings: scale 0 to 100
From the text: as §1

[12] = system: barnyardgrass; test: Test A pre-/postemergence greenhouse test; assay type: in vivo, Echinochloa crus-galli; settings: for Plant response rating, Barnyardgrass: 0 to 100 scale where 0 is no effect and 100 is complete control; for Barnyardgrass plant response rating: 0 to 100 scale
Method in brief: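 Visual injury ratings against untreated controls, taken roughly ten days after treatment in greenhouse. Plants were sprayed postemergence at one- to two-leaf stage (2–10 cm tall); at the same time, seeded loam/sand soil received a directed preemergence spray. Formulation: non-phytotoxic solvent mixture with surfactant.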

[13] = system: annual bluegrass; test: Test F preemergence test; assay type: in vivo, Poa annua; settings: scale 0 to 100
From the text: as §1

[14] = 62 g ai/ha, Preemergence, scale 0 to 100
[15] = 125 g ai/ha, preemergence, scale 0 (no effect) to 100 (complete control)
[16] = Postemergence, 125 g ai/ha, scale 0 to 100, 0 no effect, 100 complete control
[17] = Postemergence, 250 g ai/ha, scale 0 to 100, 0 no effect, 100 complete control
[18] = Preemergence, 31 g ai/ha, scale 0 to 100 (0 no effect, 100 complete control)
[19] = preemergence, 250 g ai/ha, scale 0 (no effect) to 100 (complete control)
[20] = Postemergence, 62 g ai/ha, scale 0 to 100, 0 no effect, 100 complete control

## Cn1nc(C(F)(F)F)c(C[S+]([O-])c2ccc(F)c[n+]2[O-])c1OC(F)F (stereo not drawn) [Compound 58]
[1]; 62 g ai/ha, Preemergence
  Foxtail, Green plant response rating: 95
[1]; 125 g ai/ha, preemergence
  Foxtail, Green plant response rating: 100
[1]; 250 g ai/ha, preemergence
  Foxtail, Green plant response rating: 100
[1]; Preemergence, 31 g ai/ha
  Plant response rating, Foxtail, Green: 60
[2]; 125 g ai/ha
  Signalgrass plant response rating: 90
[2]; 250 g ai/ha
  Signalgrass plant response rating: 98
[2]; 62 g ai/ha
  Plant response rating, Signalgrass: 80
[2]; 31 g ai/ha
  Plant response rating, Signalgrass: 30
[3]; 62 g ai/ha, Preemergence
  Barnyardgrass plant response rating: 100
[3]; 125 g ai/ha, preemergence
  Barnyardgrass plant response rating: 100
[3]; 250 g ai/ha, preemergence
  Barnyardgrass plant response rating: 100
[3]; Preemergence, 31 g ai/ha
  Plant response rating, Barnyardgrass: 90
[4]; [14]
  Velvetleaf plant response rating: 75
[4]; [15]
  Velvetleaf plant response rating: 100
[4]; Postemergence, 31 g ai/ha
  Plant response rating (0 to 100), Velvetleaf: 0
[4]; Postemergence, 62 g ai/ha
  Plant response rating (0 to 100), Velvetleaf: 0
[4]; [16]
  Plant response rating, Velvetleaf: 5
[4]; [17]
  Plant response rating, Velvetleaf: 5
[4]; [18]
  Plant response rating, Velvetleaf: 5
[4]; [19]
  Velvetleaf plant response rating: 100
[5]; [14]
  Kochia plant response rating: 50
[5]; [15]
  Kochia plant response rating: 100
[5]; Postemergence, 31 g ai/ha
  Plant response rating (0 to 100), Kochia: 0
[5]; [20]
  Plant response rating, Kochia: 0
[5]; [16]
  Plant response rating, Kochia: 0
[5]; [17]
  Plant response rating, Kochia: 50
[5]; [18]
  Plant response rating, Kochia: 0
[5]; [19]
  Kochia plant response rating: 100
[6]; 62 g ai/ha, Preemergence
  Black Mustard plant response rating: 60
[6]; 125 g ai/ha, preemergence
  Black Mustard plant response rating: 100
[6]; 250 g ai/ha, preemergence
  Black Mustard plant response rating: 100
[6]; Preemergence, 31 g ai/ha
  Plant response rating, Black Mustard: 50
[7]; 62 g ai/ha, Preemergence
  Field Bindweed plant response rating: 0
[7]; 125 g ai/ha, preemergence
  Field Bindweed plant response rating: 20
[7]; 250 g ai/ha, preemergence
  Field Bindweed plant response rating: 65
[7]; Preemergence, 31 g ai/ha
  Plant response rating, Field Bindweed: 0
[8]; 62 g ai/ha, Preemergence
  Mallow plant response rating: 25
[8]; 125 g ai/ha, preemergence
  Mallow plant response rating: 90
[8]; 250 g ai/ha, preemergence
  Mallow plant response rating: 100
[9]; [14]
  Cocklebur plant response rating: 0
[9]; [15]
  Cocklebur plant response rating: 0
[9]; Postemergence, 31 g ai/ha
  Plant response rating (0 to 100), Cocklebur: 0
[9]; [20]
  Plant response rating, Cocklebur: 0
[9]; [16]
  Plant response rating, Cocklebur: 0
[9]; [17]
  Plant response rating, Cocklebur: 0
[9]; [18]
  Plant response rating, Cocklebur: 0
[9]; [19]
  Cocklebur plant response rating: 40
[10]; 62 g ai/ha, Preemergence
  Dallisgrass plant response rating: 90
[10]; 125 g ai/ha, preemergence
  Dallisgrass plant response rating: 98
[10]; 250 g ai/ha, preemergence
  Dallisgrass plant response rating: 98
[10]; Preemergence, 31 g ai/ha
  Plant response rating, Dallisgrass: 75
[11]; 62 g ai/ha, Preemergence
  Itchgrass plant response rating: 75
[11]; 125 g ai/ha, preemergence
  Itchgrass plant response rating: 90
[11]; 250 g ai/ha, preemergence
  Itchgrass plant response rating: 100
[11]; Preemergence, 31 g ai/ha
  Plant response rating, Itchgrass: 35
[12]; Postemergence, 125 g ai/ha
  Plant response rating, Barnyardgrass: 80
[12]; Postemergence, 500 g ai/ha, 0 is no effect, 100 is complete control
  Barnyardgrass plant response rating: 90
[12]; Preemergence, 125 g ai/ha, 0 no effect, 100 complete control
  Barnyardgrass plant response rating: 90
[12]; Preemergence, 500 g ai/ha
  Plant response rating, Barnyardgrass: 90
[13]; 62 g ai/ha, Preemergence
  Bluegrass plant response rating: 70
[13]; 125 g ai/ha, preemergence
  Bluegrass plant response rating: 95
[13]; 250 g ai/ha, preemergence
  Bluegrass plant response rating: 100
[13]; Preemergence, 31 g ai/ha
  Plant response rating, Bluegrass: 0
